Literature values as cited in patent US20020016372A1, “Method for preventing and treating alzheimer's disease and brain damage associated with cardiov ascular disease and head injury” (priority 2000, published 2002).
Entries after “also recorded” stand apart in the source; their conditions may differ. Like-named read-outs stand apart in the source and are kept apart here. Blank lines part the entries; values can stand above or below the molecule they belong to.

Tests used:
[1] = system: protein tyrosine phosphorylation in the brain; details: chick embryo
Human Lymphocytes = details: comet assay
[2] = system: Caco-2 Colon Carcinoma Cells; details: oxidant effect
NGF = details: aged rodents
brain sulfotransferase = details: mice; for brain sulfotransferase activity: in vivo
[3] = rat, dietary supplementation

Molecule: vitamin K
protein tyrosine phosphorylation in the brain [1]: increases

calcium-mediated signaling [2]: perturb
thiol-containing compounds in cells [2]: can deplete
Molecule: CC1=CC(=O)c2ccccc2C1=O [menadione, 2-methylnaphthoquinone]
DNA damage (Human Lymphocytes): can induce DNA damage

Molecule: COC1=C(OC)C(=O)C(CCCCCCCCCCO)=C(C)C1=O [Idebenone]
NGF levels in the brains (NGF): increases
activity in AD patients (European trials): appeared to have some activity
activity in AD patients (U.S. trial (abandoned)): no activity was found

concentration of menaquinone-4 in the brain [3]: increased; also recorded: augments
Molecule: CC1=C(C/C=C(\C)CCC[C@H](C)CCC[C@H](C)CCCC(C)C)C(=O)c2ccccc2C1=O [phylloquinone, Phylloquinone]
brain sulfotransferase activity (brain sulfotransferase): increased

Molecule: CC(=O)CC(c1ccccc1)c1c(O)c2ccccc2oc1=O (stereo not drawn) [warfarin]
incorporation of labeled sulfate into brain sulfatides (brain sulfotransferase): decrease
brain sulfotransferase activity (brain sulfotransferase): decrease
protein tyrosine phosphorylation in the brain [1]: decreases
